Read-outs that look alike come from different tables or passages of the source.
Tests used:
MV-4-11 cells = experiment: Cell growth inhibition assay (CellTiter-Glo), MV-4-11; type: cell-based; settings: Homo sapiens, MV4-11
Procedure: (§1) Cell Growth Inhibition Assay
(§2) The human leukemia cell lines MV-4-11, THP-1 and K-562 were employed to characterize the effect of BET inhibitors on cellular proliferation and viability. Cells were obtained from the American Type Culture Collection (ATCC) and cultured at 37° C. in a humidified 5% CO2 incubator in the following media: MV-4-11: DMEM high glucose (Animed #1-26F01-I), 10% FCS (Animed #2-01F26-I), 4 mM L-Glutamine (Animed #5-10K50), 1 mM Sodium Pyruvate (Animed # G03625P), 1× Penicillin-Streptomycin (Animed # F12478P); K-562: Iscove's MEM (Animed #1-28F16-I), 10% FCS (Animed #2-01F26-I), 4 mM L-Glutamine (Animed #5-10K50), 1× Penicillin-Streptomycin (Animed # F12478P); THP-1: RPMI-1640 (Animed #1-41F01-I), 10% FCS (Animed #2-01F26-I), 2 mM L-Glutamine (Animed #5-10K50), 10 mM HEPES (Animed #5-31F100), 1 mM Sodium Pyruvate (Animed # G03625P), 1× Penicillin-Streptomycin (Animed # F12478P). The AML lines MV-4-11 and THP-1 are very sensitive to BET inhibitors and show massive cell death upon BET inhibition (Zuber et al., Nature, 478 (2011), 524-8). Compound-mediated suppression of cell proliferation/viability was assessed by quantification of cellular ATP levels using the CellTiter-Glo (CTG) reagent (Promega). Briefly, cells were seeded in 20 μl fresh medium into 384-well plates, followed by addition of 5 μL medium containing compound dilutions at 5-fold their final intended concentration. Dose-response effects were assessed by 3-fold serial dilutions of the test compound, starting at 10 μM. Following incubation of the cells for 4 days at 37° C. and 5% CO2, the effect of inhibitors on cell viability was quantified following addition of 20 μl CTG and luminescence quantification (integration time: 100 ms) as per vendor manual, using a correspondingly equipped Tecan M200 multi-mode platereader (TECAN, Switzerland). For data analysis, the assay background value determined in wells containing medium, but no cells, was subtracted from all data points. To enable differentiation of cytotoxic from cytostatic compounds, the number of viable cells is assessed relative to that observed at the time of compound addition using a separate cell plate (day 0). The effect of a particular test compound concentration on cell proliferation/viability is expressed as percentage of the background- and day 0-corrected luminescence reading obtained for cells treated with vehicle only (DMSO, 0.1% final concentration), which is set as 100%, whereas that luminescence reading for wells containing medium is set as −100%. Compound concentrations leading to half-maximal (1050) and total growth inhibition (TGI) were determined using standard four parameter curve fitting.

THP-1 cells = experiment: Cell growth inhibition assay (CellTiter-Glo), THP-1; type: cell-based; settings: Homo sapiens
Procedure: as §1, §2

K-562 cells = experiment: Cell growth inhibition assay (CellTiter-Glo), K-562; type: cell-based, human
Procedure: as §1, §2

Row | SMILES | GI50 (MV-4-11 cells) [nM] | IC (TGI) (MV-4-11 cells) [nM] | GI50 (THP-1 cells) [nM] | IC (TGI) (THP-1 cells) [nM] | GI50 (K-562 cells; Homo sapiens, K562) [nM] | IC (TGI) (K-562 cells; Homo sapiens, K562) [nM] | IC (TGI) (K-562 cells) [nM]
1 | COc1ncc(-n2nc(C)c3c2C(=O)N(c2cc(C)c(=O)n(C)c2)C3c2ccc(Cl)cc2)c(OC)n1 (racemic) [Example 52, 4-(4-chlorophenyl)-1-(2,4-dimethoxypyrimidin-5-yl)-5-(1,5-dimethyl-6-oxo-1,6-dihydropyridin-3-yl)-3-methyl-4,5-dihydropyrrolo[3,4-c]pyrazol-6(1H)-one] | 97.4 | 156 | 198 | 345 | 424 | > 10000 | 
2 | Cc1nn(-c2ccnn2C)c2c1C(c1ccc(Cl)cc1)N(c1cc(C)c(=O)n(C)c1)C2=O (racemic) [Example 74, 4-(4-chlorophenyl)-5-(1,5-dimethyl-6-oxo-1,6-dihydropyridin-3-yl)-3-methyl-1-(1-methyl-1H-pyrazol-5-yl)-4,5-dihydropyrrolo-[3,4-c]pyrazol-6(1H)-one] | 95.8 | 103 | 142 | 327 | 459 | > 10000 | 
3 | Cc1cc(N2C(=O)c3c(c(C4CC4)nn3C)C2c2ccc(Cl)cc2)cn2c(C)nnc12 (racemic) [Example 129, 4-(4-chlorophenyl)-3-cyclopropyl-5-(3,8-dimethyl-[1,2,4]triazolo[4,3-a]pyridin-6-yl)-1-methyl-4,5-dihydropyrrolo-[3,4-c]pyrazol-6(1H)-one] | 14.5 |  | 22.6 |  | 98.9 |  | 
4 | COCc1nn(C2CC2)c2c1C(c1ccc(Cl)cc1)N(c1cc(C)c(=O)n(C)c1)C2=O (racemic) [Example 132, 4-(4-chlorophenyl)-1-cyclopropyl-5-(1,5-dimethyl-6-oxo-1,6-dihydropyridin-3-yl)-3-(methoxymethyl)-4,5-dihydropyrrolo[3,4-c]pyrazol-6(1H)-one] | 52.3 | 99.5 | 107 | 233 | 427 | > 10000 | 
5 | Cc1c2c(nn1C)C(=O)N(c1cc(Cl)c(=O)n(C)c1)[C@@H]2c1ccc(Cl)cc1 [Example 7, (R)-5-(5-chloro-1-methyl-6-oxo-1,6-dihydropyridin-3-yl)-4-(4-chlorophenyl)-2,3-dimethyl-4,5-dihydropyrrolo-[3,4-c]pyrazol-6(2H)-one] | 71.1 |  | 103 |  | 632 |  | 
6 | Cc1cc(N2C(=O)c3nn(C)cc3[C@H]2c2ccc(Cl)cc2)cn(C)c1=O [Example 16, (R)-4-(4-chlorophenyl)-5-(1,5-dimethyl-6-oxo-1,6-dihydropyridin-3-yl)-2-methyl-4,5-dihydropyrrolo-[3,4-c]pyrazol-6(2H)-one] | 75.8 |  | 101 |  | 624 |  | 
7 | Cc1c2c(nn1C1CC1)C(=O)N(c1cc(Cl)c(=O)n(C)c1)[C@H]2c1ccc(Cl)cc1 [Example 18, (S)-5-(5-chloro-1-methyl-6-oxo-1,6-dihydropyridin-3-yl)-4-(4-chlorophenyl)-2-cyclopropyl-3-methyl-4,5-dihydropyrrolo[3,4-c]pyrazol-6(2H)-one] | 3330 |  | > 10000 |  | > 10000 |  | 
8 | Cc1c2c(nn1C1CC1)C(=O)N(c1cc(Cl)c(=O)n(C)c1)[C@@H]2c1ccc(Cl)cc1 [Example 19, (R)-5-(5-chloro-1-methyl-6-oxo-1,6-dihydropyridin-3-yl)-4-(4-chlorophenyl)-2-cyclopropyl-3-methyl-4,5-dihydropyrrolo-[3,4-c]pyrazol-6(2H)-one] | 25.8 |  | 74.6 |  | 242 |  | >10000
9 | Cc1cc(N2C(=O)c3nn(C4CC4)c(C)c3[C@H]2c2ccc(Cl)cc2)cn(C)c1=O [Example 21, (R)-4-(4-chlorophenyl)-2-cyclopropyl-5-(1,5-dimethyl-6-oxo-1,6-dihydropyridin-3-yl)-3-methyl-4,5-dihydropyrrolo[3,4-c]pyrazol-6(2H)-one] | 22.3 |  | 36.6 |  | 266 |  | 
10 | Cc1cc(N2C(=O)c3n[nH]cc3C2c2ccc(Cl)cc2)cn(C)c1=O (centres unmarked) [Example 26, 4-(4-chlorophenyl)-5-(1,5-dimethyl-6-oxo-1,6-dihydropyridin-3-yl)-4,5-dihydropyrrolo[3,4-c]pyrazol-6(2H)-one] | 204 |  | 297 |  | 1500 |  | 
11 | Cc1[nH]nc2c1C(c1ccc(Cl)cc1)N(c1cc(C)c(=O)n(C)c1)C2=O (centres unmarked) [Example 27, 4-(4-chlorophenyl)-5-(1,5-dimethyl-6-oxo-1,6-dihydropyridin-3-yl)-3-methyl-4,5-dihydropyrrolo[3,4-c]pyrazol-6(2H)-one] | 55.9 |  | 120 |  | 463 |  | 
12 | Cc1cc(N2C(=O)c3c(cnn3C3CC3)C2c2ccc(Cl)cc2)cn(C)c1=O (centres unmarked) [Example 34, 4-(4-chlorophenyl)-1-cyclopropyl-5-(1,5-dimethyl-6-oxo-1,6-dihydropyridin-3-yl)-4,5-dihydropyrrolo[3,4-c]pyrazol-6(1H)-one] | 82.8 |  | 162 |  | 601 |  | 
13 | Cn1cc(N2C(=O)c3c(cnn3C3CC3)C2c2ccc(Cl)cc2)cc(Cl)c1=O (centres unmarked) [Example 35, 5-(5-chloro-1-methyl-6-oxo-1,6-dihydropyridin-3-yl)-4-(4-chlorophenyl)-1-cyclopropyl-4,5-dihydropyrrolo[3,4-c]pyrazol-6(1H)-one] | 105 |  | 239 |  | 905 |  | 
14 | Cc1cc(N2C(=O)c3c(cnn3C(C)C)C2c2ccc(Cl)cc2)cn(C)c1=O (centres unmarked) [Example 36, 4-(4-chlorophenyl)-5-(1,5-dimethyl-6-oxo-1,6-dihydropyridin-3-yl)-1-isopropyl-4,5-dihydropyrrolo-[3,4-c]pyrazol-6(1H)-one] | 53.4 |  | 103 |  | 430 |  | 
15 | Cn1cc(N2C(=O)c3c(c(C(F)(F)F)nn3C3CC3)C2c2ccc(Cl)cc2)cc(Cl)c1=O (centres unmarked) [Example 44, 5-(5-chloro-1-methyl-6-oxo-1,6-dihydropyridin-3-yl)-4-(4-chlorophenyl)-1-cyclopropyl-3-(trifluoromethyl)-4,5-dihydropyrrolo[3,4-c]pyrazol-6(1H)-one] | 217 |  | 308 |  | 658 |  | 
16 | Cc1cc(N2C(=O)c3c(c(C(F)(F)F)nn3C3CC3)C2c2ccc(Cl)cc2)cn(C)c1=O (centres unmarked) [Example 45, 4-(4-chlorophenyl)-1-cyclopropyl-5-(1,5-dimethyl-6-oxo-1,6-dihydropyridin-3-yl)-3-(trifluoromethyl)-4,5-dihydropyrrolo[3,4-c]pyrazol-6(1H)-one] | 251 |  | 357 |  | 994 |  | 
17 | COc1ncc(-n2nc3c(c2C(C)C)C(c2ccc(Cl)cc2)N(c2cc(C)c4onc(C)c4c2)C3=O)c(OC)n1 (centres unmarked) [Example 46, 4-(4-chlorophenyl)-2-(2,4-dimethoxypyrimidin-5-yl)-5-(3,7-dimethylbenzo[d]-isoxazol-5-yl)-3-isopropyl-4,5-dihydropyrrolo-[3,4-c]pyrazol-6(2H)-one] | 115 |  | 177 |  | 370 |  | >10000
18 | COc1ncc(-n2nc3c(c2C(F)(F)F)C(c2ccc(Cl)cc2)N(c2cc(Cl)c(=O)n(C)c2)C3=O)c(OC)n1 (centres unmarked) [Example 47, 5-(5-chloro-1-methyl-6-oxo-1,6-dihydropyridin-3-yl)-4-(4-chlorophenyl)-2-(2,4-dimethoxypyrimidin-5-yl)-3-(trifluoromethyl)-4,5-dihydropyrrolo[3,4-c]pyrazol-6(2H)-one] | 113 |  | 414 |  | 709 |  | 
19 | Cc1nn(C2CC2)c2c1[C@@H](c1ccc(Cl)cc1)N(c1cc(C)c(=O)n(C)c1)C2=O [Example 49, (R)-4-(4-chlorophenyl)-1-cyclopropyl-5-(1,5-dimethyl-6-oxo-1,6-dihydropyridin-3-yl)-3-methyl-4,5-dihydropyrrolo-[3,4-c]pyrazol-6(1H)-one] | 24.1 |  | 29 |  | 120 |  | 
20 | Cc1nn(C2CC2)c2c1[C@@H](c1ccc(Cl)cc1)N(c1cc(Cl)c(=O)n(C)c1)C2=O [Example 51, (R)-5-(5-chloro-1-methyl-6-oxo-1,6-dihydropyridin-3-yl)-4-(4-chlorophenyl)-1-cyclopropyl-3-methyl-4,5-dihydropyrrolo-[3,4-c]pyrazol-6(1H)-one] | 51.9 |  | 72.5 |  | 318 |  | 

From patent publication US20160095843A1, “PYRAZOLOPYRROLIDINE DERIVATIVES AND THEIR USE IN THE TREATMENT OF DISEASE” (NOVARTIS AG, priority 2013, published 2016)
